Where two headings read alike, the source gives them in different places.
Tests used:
specimen of rat aorta [1] = assay: Vasorelaxation activity in a specimen of rat aorta: contraction caused by TEA and BaCl2; conditions: TEA (30-45 mM) and BaCl2 (0.3 mM) contraction, read-out: constriction inhibitory ratio
Method: Vasorelaxation activity in a specimen of rat aorta Effects on contraction caused by tetraethylammonium chloride (TEA) and barium chloride (BaCl2)
(§1) Male Wister rats (10 to 13 week old were employed for the experiment. After dehematization, the aorta was excised and a ring specimen (5 mm length) was prepared. The specimen was suspended in a bath filled with oxygenated (95% O2 -5%CO2) Krebs solution (36° C.). The ring specimen was fixed at one end and the other end was connected to a transducer (Nippon Koden) for recording tension to determine the tension. After a stabilization period of one hour, TEA (30-45 mM) and BaCl2 (0.3 mM) were added to the bath to cause vasoconstriction. After the constriction had reached a steady state (after about 15 minutes), a test compound was added to the bath and its relaxation activity was measured.

specimen of rat aorta [2] = assay: Vasorelaxation activity in a specimen of rat aorta: contraction caused by KCl; conditions: read-out: constriction inhibitory ratio
Method: as §1
Vasorelaxation activity in a specimen of rat aorta Effects on contraction caused by potassium chloride (KCl)
The same experiment was conducted as in Experiment 1, excepting the use of KCl ([…]) instead of TEA and BaCl2

[3] = system: Spontaneously hypertensive rats; assay: Hypotensive activity in rats (Tail Cuff Method), oral; assay type: in vivo; conditions: Rattus norvegicus, 1 mg/kg, SHR
Method: Hypotensive activity in rats (Tail Cuff Method)
Spontaneously hypertensive rats (SHR, male, 20 to 23 week old) were warmed up to 36° C. The blood pressure at the tail aorta was measured by the tail cuff method. The blood pressure was measured three times, i.e. before oral administration of the test compound, two hours after the administration and five hours after the administration. The test compound was orally administered in the state of a suspension in gum arabic.
Maximal, hypotensive effect against the blood pressure before the administration is shown as % pre. in Table 66. As a result, it is apparent that the compounds of this invention show hypotensive activity.

[4] = after 2 hours, read-out: Maximal hypotensive effect against blood pressure before administration (% pre.), after 2 hours
[5] = after 5 hours, read-out: Maximal hypotensive effect against blood pressure before administration (% pre.), after 5 hours

Compound | inhibition at 1 µM (specimen of rat aorta [1]) [%] | inhibition at 3 µM (specimen of rat aorta [1]) [%] | inhibition at 1 µM (specimen of rat aorta [2]) [%] | inhibition at 3 µM (specimen of rat aorta [2]) [%] | inhibition at 10 µM (specimen of rat aorta [1]) [%] | inhibition at 10 µM (specimen of rat aorta [2]) [%] | inhibition in vivo at 1 mg/kg [3, 4] [%] | inhibition in vivo at 1 mg/kg [3, 5] [%]
CC(C)(C)O/N=C(/c1cc(C(F)(F)F)ccc1O)c1ncccc1O [Compound 4, (Z)-2-(5-trifluoromethyl-2-hydroxybenzoyl)-3-hydroxypyridine O-t-butyloxime] | 38 | 79 | -2 | 7 | – | – | – | –
CC(C)(C)O/N=C(/c1cc(F)ccc1O)c1ncccc1O [Compound 8, (Z)-2-(5-fluoro-2-hydroxybenzoyl)-3-hydroxypyridine O-t-butyloxime] | 16 | 93 | -9 | -2 | – | – | – | –
CC(C)(C)O/N=C(/c1cc(C#N)ccc1O)c1ncccc1O [Compound 9, (Z)-2-(5-cyano-2-hydroxybenzoyl)-3-hydroxypyridine O-t-butyloxime] | – | 22 | – | 0 | 82 | 10 | – | –
CCCCO/N=C(/c1cc(Br)ccc1O)c1ncccc1O [Compound 18] | – | 41 | – | – | 63 | – | – | –
CC(C)O/N=C(/c1cc(Br)ccc1O)c1ncccc1O [Compound 19, (Z)-2-(5-bromo-2-hydroxybenzoyl)-3-hydroxypyridine O-i-propyloxime] | 58 | 95 | -5 | 6 | – | – | – | –
CC(C)(C)O/N=C(/c1ccc(F)cc1O)c1ncccc1O [Compound 30, (Z)-2-(4-fluoro-2-hydroxybenzoyl)-3-hydroxypyridine O-t-butyloxime] | 4 | 50 | – | 1 | 92 | 18 | – | –
CC(C)(C)O/N=C(/c1cc([N+](=O)[O-])ccc1O)c1c(O)ccc[n+]1[O-] [Compound 64, (Z)-2-(2-hydroxy-5-nitrobenzoyl)-3-hydroxypyridine N-oxide O-t-butyloxime] | – | 43 | – | 0 | 100 | 4 | – | –
CC(C)(C)O/N=C(/c1cc(Br)c(F)cc1O)c1ncccc1O [Compound 68, (Z)-2-(5-bromo-4-fluoro-2-hydroxybenzoyl)-3-hydroxypyridine O-t-butyloxime] | 92 | – | 4 | – | – | – | – | –
CC(C)(C)O/N=C(/c1cc(Br)c(F)cc1O)c1c(O)ccc[n+]1[O-] [Compound 69, (Z)-2-(5-bromo-4-fluoro-2-hydroxybenzoyl)-3-hydroxypyridine N-oxide O-t-butyloxime] | 100 | – | 0 | – | – | – | 26 | 19
CC(C)(C)O/N=C(/c1cc(Br)ccc1O)c1cccc[n+]1[O-] [Compound 89, (Z)-2-(5-bromo-2-hydroxybenzoyl)pyridine N-oxide O-t-butyloxime] | – | 55 | – | 11 | 85 | 32 | – | –
Cc1cc(O)c(/C(=N/OC(C)(C)C)c2ncccc2O)cc1C [Compound 106, (Z)-2-(2-hydroxy-4,5-dimethylbenzoyl)-3-hydroxy pyridine O-t-butyloxime] | 2 | 56 | 0 | 5 | 100 | 39 | – | –
Cc1cc(/C(=N/OC(C)(C)C)c2ncccc2O)c(O)cc1F [Compound 111, (Z)-2-(4-fluoro-2-hydroxy-5-methylbenzoyl)-3-hydroxy pyridine O-t-butyloxime] | 81 | 92 | 0 | 0 | – | – | – | –
Cc1cc(O)c(/C(=N/OC(C)(C)C)c2ncccc2O)cc1F [Compound 114, (Z)-2-(5-fluoro-2-hydroxy-4-methylbenzoyl)-3-hydroxy pyridine O-t-butyloxime] | 65 | 89 | 0 | 0 | – | – | – | –
CC(C)(C)O/N=C(/c1cc(C=O)ccc1O)c1ncccc1O [Compound 117] | 10 | 52 | 4 | 12 | 99 | 32 | – | –
CC(C)(C)O/N=C(/c1cc(Br)c(Cl)cc1O)c1c(O)ccc[n+]1[O-] [Compound 119, (Z)-2-(5-bromo-4-chloro-2-hydroxybenzoyl)-3-hydroxypyridine N-oxide O-t-butyloxime] | 69 | 71 | 5 | 6 | – | – | 48 | 29
COc1cc(O)c(/C(=N/OC(C)(C)C)c2c(O)ccc[n+]2[O-])cc1Br [Compound 121, (Z)-2-(5-bromo-2-hydroxy-4-methoxybenzoyl)-3-hydroxy pyridine N-oxide O-t-butyloxime] | 3 | 57 | – | 0 | 82 | 0 | – | –
CC(C)(C)O/N=C(/c1cc(Cl)c(Cl)cc1O)c1c(O)ccc[n+]1[O-] [Compound 122, (Z)-2-(4,5-dichloro-2-hydroxybenzoyl)-3-hydroxypyridine N-oxide O-t-butyloxime] | 100 | – | 0 | – | – | – | 30 | 24
CC(C)(C)O/N=C(/c1cc(Cl)ccc1O)c1c(O)ccc[n+]1[O-] [Compound 123] | – | 52 | – | 0 | 91 | 0 | 37 | 12
Cc1cc(O)c(/C(=N/OC(C)(C)C)c2c(O)ccc[n+]2[O-])cc1C [Compound 125, (Z)-2-(2-hydroxy-4,5-dimethyl-benzoyl)-3-hydroxy pyridine N-oxide O-t-butyloxime] | – | 25 | – | 1 | 78 | 8 | – | –
Cc1cc(O)c(/C(=N/OC(C)(C)C)c2c(O)ccc[n+]2[O-])cc1F [Compound 127, (Z)-2-(5-fluoro-2-hydroxy-4-methylbenzoyl)-3-hydroxy pyridine N-oxide O-t-butyloxime] | 8 | 85 | – | 0 | 100 | 0 | – | –
CC(C)(C)O/N=C(/c1cc(Cl)ccc1O)c1ncccc1Cl [Compound 147, (Z)-2-(5-chloro-2-hydroxybenzoyl)-3-chloro pyridine O-t-butyloxime] | 100 | – | 16 | – | – | – | – | –
CCOc1cc(O)c(/C(=N/OC(C)(C)C)c2ncccc2O)cc1Cl [Compound 160] | 100 | – | 18 | – | – | – | – | –
